Data set [1] has as its system 5-HT6. Set-up: method as in Dupuis et al. (2008) [31]. As to conditions: Figure 8; ref Dupuis et al. (2008) [31]; cited from earlier work.
In the next data set the target is D2. Further details: method as in Dupuis et al. (2008) [31]. As to conditions: Figure 8; ref Dupuis et al. (2008) [31]; cited from earlier work.
For data set [2], the target named is 5-HT6. As to conditions: read-out: Ki 5-HT6; Figure 8; ref Dupuis et al. (2008) [31]; cited from earlier work.
Data set [3] addresses T1, Human Serotonin 5-HT6R (Homo sapiens, UniProt P50406).
T1 construct: host or cells: 1321N1 (frozen recombinant cells)
The experiment in a line: 5-HT6R functional assay, antagonistic mode (cAMP induced by 5-CT, 1321N1 cells). It is filed as cell-based. As to conditions: antagonistic mode, 5-CT 1000 nM; read-out: 5-HT6 Kb. The procedure: (§1) The properties of compounds to inhibit cAMP production induced by a 5-HT6R agonist 5-CT (1000 nM) was evaluated. Compounds were tested in triplicate at eight concentrations (10^−11–10^−4 M). The level of cAMP was measured using frozen recombinant 1321N1 cells expressing the Human Serotonin 5-HT6R (PerkinElmer). Total cAMP was measured using the LANCE cAMP Detection Kit (PerkinElmer), according to the manufacturer’s instructions. For quantification of cAMP levels, 2000 cells/well ([…]) were incubated with a mixture of compounds ([…]) for 30 min at room temperature in a 384-well white opaque microtiter plate. After incubation, the reaction was stopped and cells were lysed by the addition of […] of working solution ([…] ULight-anti-cAMP) for 1 h at room temperature. Time-resolved fluorescence resonance energy transfer (TR-FRET) was detected by an Infinite M1000 Pro (Tecan) using instrument settings from the LANCE cAMP Detection Kit manual. […] The agonistic properties of compounds were determined with an analogous procedure, but without stimulation with 5-CT [10, 36].

The nature of data set [4]: Metabolic stability, incubation with mouse liver microsomes. Type of data set: in vitro ADME. As to conditions: MLMs, 50 µM, 2 h. The procedure: The murine liver microsomes (MLMs) were purchased from Sigma-Aldrich (St. Louis, MO, USA). To determine metabolic pathways, the tested compounds (50 µM) were incubated with 100 mM Tris-HCl buffer at 37 °C with MLMs (1 mg/mL) and NADPH Regeneration System for 2 h. Reactions were quenched with cold, pure methanol and mixtures were centrifuged 14,000 g for 15 min. The supernatants were analyzed using LCMS. The additional MS ion fragmentation of the product and the substrate were performed to determine the most probable structure of the metabolite.

Another data set concerns the target T2, CYP3A4 (Homo sapiens, UniProt P08684).
T2 construct: purchased Promega (Madison, WI, USA)
Description: CYP3A4 P450-Glo luminescent assay. Type of data set: in vitro ADME. As to conditions: compared to ketoconazole; 0.01 to 25 µM. The procedure:
The experiments were provided using commercially available luminescent CYP3A4 P450-Glo™ and CYP2D6 P450-Glo™ tests purchased from Promega (Madison, WI, USA). The enzymatic reactions were conducted in polystyrene, flat-bottom Nunc™ MicroWell™ 96-well microplates (Thermo Scientific, Waltham, MA, USA). The assays were carried out according to the procedures provided by the manufacturer, as described previously. Compounds were tested in triplicate at the final concentrations in a range from 0.01 to 25 µM for both isoforms of CYP450. The references of CYP3A4 and CYP2D6 inhibitors (ketoconazole and quinidine, respectively) were tested in a range from 0.001 to 10 µM. Tested compounds were incubated in 100 mM Tris-HCl buffer separately with CYP3A4 and CYP2D6 membranes and the NADPH Regeneration System for 30 min at room temperature in triplicate. The bioluminescent signal was measured after the addition of the Luciferin Detection Reagent by using a microplate reader EnSpire PerkinElmer (Waltham, MA, USA). Both reagents (NADPH Regeneration System and Luciferin Detection Reagent) were purchased from Promega (Madison, WI, USA).

Another data set has as its system HepG2 cell line. Description: Hepatotoxicity assay, HepG2 viability. Type of data set: cell-based. The following applies: 1 μM, 72 h. The procedure: To estimate the hepatotoxicity of compounds, the hepatoma HepG2 (ATCC® HB-8065TM) cell line was used according to previously described protocols. The CellTiter 96® AQueous Non-Radioactive Cell Proliferation Assay was obtained from Promega (Madison, WI, USA). The compounds were tested in quadruplicate at four concentrations (1–100 µM) for 72 h.

For data set [5] the following is noted: PAMPA. For orientation: The PAMPA barrier holds no transporters, so it reflects passive diffusion.
A short description of another data set: in vitro. As to conditions: PAMPA, pH 7.4.
Data set [6] concerns the target T3, D2R (Homo sapiens, UniProt P14416). The experiment in a line: D2R functional assay, antagonist mode (cAMP, HEK293 cells). Type of data set: cell-based. Set-up: expressed in transfected cells. As to conditions: for Kb: antagonistic mode, 100 nM quinpirole, read-out: D2 Kb. The procedure: The supernatant was aspirated, and the cell pellet was resuspended in stimulation buffer (1 × HBSS, 5 mM HEPES, 0.5 mM IBMX, 0.1% BSA).
The functional properties of compounds were evaluated using the LANCE Ultra cAMP Detection Kit (PerkinElmer). D2 receptors in HEK293 cells are coupled to Gi subtype and decreased cAMP production. […] Each compound was tested in triplicate at eight concentrations (10^−11–10^−4 M).
For quantification of cAMP levels, cells (5 µL) were incubated with 5 µL mixture of compounds (tested ligand and forskolin with 100 nM quinpirole for antagonist binding mode) for 30 min at room temperature in 384-well white opaque microtiter plate (PerkinElmer). After incubation, the reaction was stopped and cells were lysed by the addition of 10 µL working solution (5 µL Eu-cAMP and 5 µL ULight-anti-cAMP). The assay plate was incubated for 1 h at room temperature. Time-resolved fluorescence resonance energy transfer (TR-FRET) signal was detected by an Infinite M1000 Pro (Tecan) using instrument settings from the LANCE Ultra cAMP Detection Kit manual.

For data set [7], the target named is T4, 5-HT2AR (Homo sapiens, UniProt P28223). Description: Radioligand binding assay, [3H]-ketanserin displacement. Set-up: host or cells: CHO-K1; membrane preparation.
T4 sequence (P28223 whole entry): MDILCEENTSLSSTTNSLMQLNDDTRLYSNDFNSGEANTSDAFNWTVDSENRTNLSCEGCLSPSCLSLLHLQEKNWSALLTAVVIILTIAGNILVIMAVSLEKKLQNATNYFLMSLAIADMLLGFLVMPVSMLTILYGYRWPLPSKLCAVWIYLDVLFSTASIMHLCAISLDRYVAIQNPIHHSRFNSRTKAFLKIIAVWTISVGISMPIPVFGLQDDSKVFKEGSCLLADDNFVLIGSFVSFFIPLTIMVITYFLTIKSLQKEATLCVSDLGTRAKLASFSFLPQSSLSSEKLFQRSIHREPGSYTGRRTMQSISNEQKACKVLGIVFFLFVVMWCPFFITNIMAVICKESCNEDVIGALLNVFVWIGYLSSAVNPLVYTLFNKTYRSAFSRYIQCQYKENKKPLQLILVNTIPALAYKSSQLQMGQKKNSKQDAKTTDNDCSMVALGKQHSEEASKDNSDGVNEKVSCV
Another data set concerns the target 5-HT6R (Homo sapiens, UniProt P50406). Description: Radioligand binding assay, [3H]-LSD displacement.
For a further data set, the target named is 5-HT7R (Homo sapiens, UniProt P34969). The experiment in a line: Radioligand binding assay, [3H]-5-CT displacement.
Sequence of 5-HT7R (P34969 1-432): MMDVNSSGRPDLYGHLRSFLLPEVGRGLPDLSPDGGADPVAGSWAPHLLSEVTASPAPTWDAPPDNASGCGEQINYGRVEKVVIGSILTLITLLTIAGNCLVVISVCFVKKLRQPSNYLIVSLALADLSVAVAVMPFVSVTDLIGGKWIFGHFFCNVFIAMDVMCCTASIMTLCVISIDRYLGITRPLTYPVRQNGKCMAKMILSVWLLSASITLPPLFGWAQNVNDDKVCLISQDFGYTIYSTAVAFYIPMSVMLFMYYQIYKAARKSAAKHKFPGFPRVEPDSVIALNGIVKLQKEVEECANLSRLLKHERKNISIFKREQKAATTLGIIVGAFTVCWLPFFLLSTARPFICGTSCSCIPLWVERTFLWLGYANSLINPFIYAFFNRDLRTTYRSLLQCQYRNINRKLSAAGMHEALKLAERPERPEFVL
In a further data set the target is T5, 5-HT1AR (Homo sapiens, UniProt P08908).
T5 sequence (P08908 1-422): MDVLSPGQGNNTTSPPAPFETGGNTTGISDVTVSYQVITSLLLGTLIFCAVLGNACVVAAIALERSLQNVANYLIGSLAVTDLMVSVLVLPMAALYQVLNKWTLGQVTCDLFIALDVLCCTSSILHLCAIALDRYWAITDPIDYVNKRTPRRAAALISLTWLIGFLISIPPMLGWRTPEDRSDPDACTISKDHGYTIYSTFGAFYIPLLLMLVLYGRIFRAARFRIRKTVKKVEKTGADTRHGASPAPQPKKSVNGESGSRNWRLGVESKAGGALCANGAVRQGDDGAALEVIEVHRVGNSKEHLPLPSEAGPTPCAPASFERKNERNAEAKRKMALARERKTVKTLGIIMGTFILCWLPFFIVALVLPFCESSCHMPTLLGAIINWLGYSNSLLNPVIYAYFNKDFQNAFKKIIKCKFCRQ
The experiment in a line: Radioligand binding assay, [3H]-8-OH-DPAT displacement. As to conditions: pKi 5-HT1A, Table 1.

Data set [8] concerns the target T3, D2R. Description: Radioligand binding assay, [3H]-raclopride displacement.
For data set [9], the target named is T4, 5-HT2AR. Description: 5-HT2AR function (no method given).
The target in data set [10] is T1, Human Serotonin 5-HT6R. The experiment in a line: 5-HT6R functional assay, agonistic mode (cAMP, 1321N1 cells). It is filed as cell-based. As to conditions: agonistic mode; read-out: 5-HT6 EC50. The procedure: as §1
Data set [11] can be described thus: Metabolic stability, incubation with mouse liver microsomes. Type of data set: in vitro ADME. The following applies: MLMs, prolonged incubation. In general terms: Liver microsomes are vesicles of endoplasmic reticulum, rich in cytochrome P450 enzymes.
The mark [12] stands for this setting: Table 1, read-out: pKi 5-HT2A (converted).

Like-named read-outs stand apart in the source and are kept apart here.

T3 sequence (P14416 whole entry): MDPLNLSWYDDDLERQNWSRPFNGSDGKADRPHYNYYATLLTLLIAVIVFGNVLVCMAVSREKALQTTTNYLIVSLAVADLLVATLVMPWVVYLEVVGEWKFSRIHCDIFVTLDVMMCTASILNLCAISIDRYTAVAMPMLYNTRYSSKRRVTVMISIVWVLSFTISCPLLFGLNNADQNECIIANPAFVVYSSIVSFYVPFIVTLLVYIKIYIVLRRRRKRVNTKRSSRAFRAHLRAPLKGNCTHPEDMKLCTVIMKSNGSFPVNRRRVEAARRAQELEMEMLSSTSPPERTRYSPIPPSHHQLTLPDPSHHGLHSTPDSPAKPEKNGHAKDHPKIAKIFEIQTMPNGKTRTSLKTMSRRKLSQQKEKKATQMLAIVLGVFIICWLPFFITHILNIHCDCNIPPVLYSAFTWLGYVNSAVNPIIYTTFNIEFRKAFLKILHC
T1 sequence (P50406 whole entry): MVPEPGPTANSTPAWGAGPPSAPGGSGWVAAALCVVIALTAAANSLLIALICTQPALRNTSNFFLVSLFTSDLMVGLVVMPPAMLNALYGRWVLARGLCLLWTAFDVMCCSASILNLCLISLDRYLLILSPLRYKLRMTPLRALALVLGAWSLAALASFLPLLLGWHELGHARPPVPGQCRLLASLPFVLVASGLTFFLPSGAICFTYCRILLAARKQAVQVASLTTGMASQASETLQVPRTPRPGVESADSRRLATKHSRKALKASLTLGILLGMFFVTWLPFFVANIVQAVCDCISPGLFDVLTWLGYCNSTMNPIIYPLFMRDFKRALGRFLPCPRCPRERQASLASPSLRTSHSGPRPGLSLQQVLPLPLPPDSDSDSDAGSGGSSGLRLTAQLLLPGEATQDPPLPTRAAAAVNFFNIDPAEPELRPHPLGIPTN
Sequence of 5-HT6R (P50406 whole entry): as above
T2 sequence (P08684 whole entry): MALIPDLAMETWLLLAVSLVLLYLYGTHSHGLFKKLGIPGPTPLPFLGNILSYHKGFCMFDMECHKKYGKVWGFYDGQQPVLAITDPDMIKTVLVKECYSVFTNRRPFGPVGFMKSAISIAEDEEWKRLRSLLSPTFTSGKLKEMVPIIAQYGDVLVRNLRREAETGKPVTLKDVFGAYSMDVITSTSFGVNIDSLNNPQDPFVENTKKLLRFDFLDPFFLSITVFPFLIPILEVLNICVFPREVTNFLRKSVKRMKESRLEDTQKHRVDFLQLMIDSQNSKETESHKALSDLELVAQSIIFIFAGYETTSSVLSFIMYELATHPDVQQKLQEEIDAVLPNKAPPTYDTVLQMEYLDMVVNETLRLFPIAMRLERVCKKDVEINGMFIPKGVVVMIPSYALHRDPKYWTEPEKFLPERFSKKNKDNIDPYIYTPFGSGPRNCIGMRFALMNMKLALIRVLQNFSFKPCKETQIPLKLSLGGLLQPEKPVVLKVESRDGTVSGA

Regarding `O=C1Cc2cc(CCN3CCN(c4nsc5ccccc45)CC3)c(Cl)cc2N1` [Ziprasidone], the Kb in the data set on 5-HT6 [1] was 57.5 nM. The Ki on D2 is 0.8 nM; at 5-HT6 [2], 20 nM.

Usually Papp stands for the rate of passage across a membrane or cell layer, normalised by area and donor concentration. In the case of `Clc1ccc2c(CNCCc3c[nH]c4ccccc34)c[nH]c2c1` [Compound 14], the Kb at Human Serotonin 5-HT6R [3] is 112 nM; on D2R [6], 290 nM. The “Metabolic Pathway, metabolite M1” value in data set [4] is “hydroxylation hydroxylation”. The “Metabolic Pathway, metabolite M2” value in [4] is reported as “hydroxylation hydroxylation”. Moreover, the “effect on CYP3A4 activity” value at CYP3A4 is reported as “only slightly inhibited”. Also, the HepG2 cell viability in the data set with HepG2 cell line is ~ 80 % of the control. Moreover, the “effect on HepG2 proliferation in words” value in the data set on HepG2 cell line was “slight antiproliferative effect”. Moreover, the permeability in words result in [5] is reported as “medium permeability coefficients”. This compound also came in with an apparent permeability coefficient (Papp) at 5 h, 200 µM in the data set “in vitro” of 8.34 ± 1.33 ×10⁻⁶ cm/s. Moreover, the Ki at 5-HT2AR [7] (setting [12]) was 468 nM; at 5-HT6R (Ki 5-HT6, Figure 8), 90 nM; at 5-HT6R (pKi 5-HT6, Table 1) it was 89.1 nM; on 5-HT7R it was 15800 nM; on 5-HT1AR it was 1070 nM; at D2R [8] (Ki D2, Figure 8), 124 nM. For the same compound, the Ki on D2R [8] (pKi D2, Table 1) is 123 nM.

`c1ccc2c(CCNCc3c[nH]c4ccccc34)c[nH]c2c1` [Compound 1, [2-(1H-indol-3-yl)ethyl][(1H-indol-3-yl)methyl]amine]: the Kb at Human Serotonin 5-HT6R [3] came to 151 nM. Further, the “5-HT2AR function in words” value at 5-HT2AR [9] is 5-HT2AR partial agonist. Moreover, the Ki was 20 nM on 5-HT2AR [7] (Ki 5-HT2A); 20 nM on 5-HT2AR [7] (pKi 5-HT2A, Table 1); 172 nM at 5-HT6R (Ki 5-HT6, Figure 8); 174 nM on 5-HT6R (pKi 5-HT6, Table 1); 28800 nM on 5-HT7R; 1510 nM on 5-HT1AR. Also, the “pKi D2” value at D2R [8] (Table 1) is given as 7.22.

Consider `Clc1cccc2c(CNCCc3c[nH]c4ccccc34)c[nH]c12` [Compound 17], for which the Kb at Human Serotonin 5-HT6R [3] came out at 234 nM; on D2R [6], 215 nM. Also, in data set [4], the “Metabolic Pathway, metabolite M1” value is “hydroxylation hydroxylation”. Besides, the “Metabolic Pathway, metabolite M2” value in data set [4] is given as “hydroxylation hydroxylation”. For the same compound, on CYP3A4, the “effect on CYP3A4 activity” value was “only slightly inhibited”. Also, in the data set on HepG2 cell line, the HepG2 cell viability was ~ 80 % of the control. Further, the “effect on HepG2 proliferation in words” value in the data set on HepG2 cell line is “slight antiproliferative effect”. For the same compound, the permeability in words entry in data set [5] is “medium permeability coefficients”. This compound also had a Papp at 5 h, 200 µM in the data set “in vitro” of 8.42 ± 0.27 ×10⁻⁶ cm/s. The Ki was 3890 nM at 5-HT2AR [7] (setting [12]); 363 nM at 5-HT6R (pKi 5-HT6, Table 1); 1070 nM at 5-HT7R; 282 nM on 5-HT1AR; 51 nM on D2R [8] (Ki D2, Figure 8); 51.3 nM on D2R [8] (pKi D2, Table 1).

For orientation: EC50 means the concentration needed to bring the measured effect to its halfway point. In the case of `Clc1ccc2c(CCNCc3c[nH]c4ccccc34)c[nH]c2c1` [Compound 5], the EC50 at Human Serotonin 5-HT6R [10] worked out at 157 nM; at D2R [6] (read-out: EC50 (D2 receptor, antagonistic function)), 104 nM. In addition, the Kb at Human Serotonin 5-HT6R [3] was 136 nM; on D2R [6] it was 104 nM. The “Metabolic Pathway, metabolite M1” value in data set [4] was “hydroxylation”. Moreover, the “effect on CYP3A4 activity” value at CYP3A4 is “inducer of CYP3A4”. In the data set with HepG2 cell line, the HepG2 cell viability was ~ 80 % of the control. Besides, the “effect on HepG2 proliferation in words” value in the data set on HepG2 cell line is reported as “slight antiproliferative effect”. Further, the permeability in words result in data set [5] is “medium permeability coefficients”. For the same compound, the “number of hydroxylated metabolites” value in data set [11] is given as “only one hydroxylated metabolite”. In the data set “in vitro”, this compound registered a Papp at 5 h, 200 µM of 7.09 ± 1.24 ×10⁻⁶ cm/s. Besides, the Ki on 5-HT2AR [7] (setting [12]) was 1170 nM; at 5-HT7R it was 15800 nM; at 5-HT1AR, 3310 nM; on D2R [8] (Ki D2, Figure 8) it was 155 nM; on D2R [8] (pKi D2, Table 1), 155 nM.
